Measured values: a melting point compilation (Tetko et al.; mined from patent text by program, amines drawn as free bases though some values may be those of a salt)
Non-standard residues stand in square brackets, D forms with d. Residues, ends and D or L forms follow the SMILES beside them. *: point of attachment. Npys = O=[N+]([O-])c1cccnc1S*; Leu(ol) = CC(C)C[C@H](N)CO; Mpa = O=C(O)CCS

Work on `O=C(NC(CC12CC3CC(CC(C3)C1)C2)NC(=N[N+](=O)[O-])Nc1cccnc1)c1ccc(Cl)cc1` (configuration not stated) yielded a melting point of 219 to 220 °C. In the case of `O=C(c1ccc(Oc2ccc(F)cc2)nc1)N1CCCNCC1`, the melting point is reported as 95.4 °C. In the case of `O=C1CCN2C(=O)c3cccc(NC(=O)Nc4cc(O)c5ccccc5n4)c3C2C1` (configuration not stated), the melting point is reported as over 260 °C. In the case of `Cc1cccc(Nc2ncnc3cnc(NC4CCN(C#N)CC4)nc23)c1`, the melting point is reported as 178 to 181 °C. Molecule `COc1ccc(C(N)CN)cc1` (configuration not stated) has a melting point of 64 °C. With `COc1cc(COc2nn(-c3ccccc3)cc2/C=C/P(=O)(O)O)ccc1OCc1nc(-c2ccco2)oc1C` the melting point was 138 to 140 °C. Work on `OC(CN1CCNC1=S)c1ccc(Cl)cc1` (configuration not stated) yielded a melting point of 153 °C. `CSCC(=O)N(C)C(C)=Nc1cn(-c2cccnc2)nc1C` gave a melting point of 54 to 57 °C. Molecule `CC(C)C[C@@H](CO)NC(=O)[C@H](Cc1c[nH]cn1)NC(=O)[C@H](Cc1ccccc1)NC(=O)CCSSc1ncccc1[N+](=O)[O-]` ([Mpa](Npys)FH[Leu(ol)]) has a melting point of 109 to 112 °C. In the case of `Nc1nc(O)c2cc(C=Cc3ccc(C(=O)O)cc3)cnc2n1`, the melting point is reported as over 250 °C. With `COCCN(CCOC)c1nc(C)[nH]c2c(-c3ccc(Cl)cc3Cl)nc(C)c1-2` the melting point was 74 to 75 °C. Molecule `CCC(=O)N[C@@H](CC)c1nc2c(C(F)(F)F)cccc2c(O)c1C(=O)Nc1nccs1` has a melting point of over 275 °C. Molecule `CCCSc1ncc(CC(=O)O)n1Cc1ccccc1Cl` has a melting point of 68 to 71 °C. `O=[N+]([O-])c1ccc(-c2nc(-c3ccccn3)no2)cc1` showed a melting point of 211 to 213 °C. In the case of `CCNS(=O)(=O)c1cccc(OCc2nc3ccccc3s2)c1`, the melting point is reported as 111 to 113 °C. Molecule `CCS(=O)(=O)c1ccc(I)cc1` has a melting point of 78 to 79 °C. With `CC(C)(C)c1ccc2c(c1)C=C(/C=C/C=C/C=C/C(=O)O)CO2` the melting point was 200 to 202 °C. Molecule `CCCCc1cn(CCC2CC2)c(=O)n1Cc1ccc(-c2ccccc2-c2nnn[nH]2)nc1` has a melting point of 182 to 183 °C. Molecule `COC(=O)CCC(C)C(=O)N1CCC[C@H]1C(=O)O` (some centres not stated) has a melting point of 174 to 175 °C. `O=P(O)(O)OC(Cn1cncn1)C(c1ccc(F)cc1F)n1cncn1` (configuration not stated) gave a melting point of 93 °C. `CSc1ccc2c(c1)C(=O)C(C)(C)C(=O)N2` showed a melting point of 152 °C. Molecule `Cc1sc(NC(=O)CCc2cnoc2-c2ccccc2)nc1-c1ccccc1` has a melting point of 150 to 151 °C. With `COC(C)(CC(=O)NC12CC3CC(CC(C3)C1)C2)OC` the melting point was 140 °C. For `COc1ccc(C(=O)c2cccc(CC(=O)O)c2)cc1`, the melting point was 138 to 140 °C. `COc1cc2c3c(c1)c(N)c(C(=O)N1CCc4ccccc41)c(=O)n3CCO2` gave a melting point of 130 to 140 °C. For `COC(=O)CC(=O)C=Cc1ccccc1`, the melting point was 83 °C. With `COc1ccc(CN2CCC(c3cn(CCc4ccsc4)c4cc(F)ccc34)CC2)cc1C(=O)O` the melting point was 228 to 229 °C. Work on `Cn1nnnc1CC(=O)c1cc(F)c(F)cc1N` yielded a melting point of 162 to 164 °C. Molecule `Clc1cccc(Nc2ncnc3[nH]c(-c4ccccn4)cc23)c1` has a melting point of over 300 °C. In the case of `COc1ccc(N2CCN(c3c(C)c(C)c4c(c3C)CC(C)(CN3CCOCC3)O4)CC2)cc1` (configuration not stated), the melting point is reported as 137 to 142 °C. `CCN(CC)c1ccc(/C=C/c2cc(/C=C/c3ccc4cc[nH]c4c3)[nH]n2)c(OCCN2CCCCC2)c1` showed a melting point of 102 to 104 °C. For `O=S1(=O)NCN(C2CC2)c2cc(Br)cc(F)c21`, the melting point was 195 to 198 °C. With `Cn1nc(-c2c(F)cccc2Cl)nc1-c1ccc(COc2ncc(C(F)(F)F)cc2Cl)c(Cl)c1` the melting point was 47 to 49 °C. Molecule `Nc1nc(-c2ccccc2)c(-c2ccnc(Nc3ccccc3)n2)s1` has a melting point of 196 to 197 °C. `COc1cccc(OC)c1C(=O)P(=O)(C(=O)c1c(OC)cccc1OC)c1ccccc1` showed a melting point of 155 °C. With `Clc1cc(N2CCCC2)nc(NC23CC4CC(CC(C4)C2)C3)n1` the melting point was 178 to 180 °C. Work on `N#Cc1ccc2c(c1)C(=O)C1(CC1)O2` yielded a melting point of 148 to 149 °C. In the case of `NNC(=O)OCC1c2ccccc2-c2ccccc21`, the melting point is reported as 150 to 153 °C. `CCN(CC)S(=O)(=O)c1ccc(N2N=C(C)C(=CNc3ccccc3OC)C2=O)cc1` showed a melting point of 191 °C. For `CCOc1cc(C(F)(F)F)sc1C(=O)OC`, the melting point was 93.6 °C. In the case of `Cc1cnc(NC(=O)c2cc(Oc3ccc(C(=O)N4CCC4)cc3F)cc(O[C@@H](C)CO)c2)cn1`, the melting point is reported as 172 °C. `COc1cc(C(C)C)c2c(c1)S(=O)(=O)N(COc1cc(C(=O)O)nn1-c1ccccc1)C2=O` gave a melting point of 193 to 194 °C. Molecule `CCOC(=O)Cc1ccc(-c2nc(COc3ccc(COc4nn(-c5ccccc5)cc4/C=C/c4coc(C(C)C)n4)cc3OC)c(C)o2)cc1` has a melting point of 106 to 108 °C. In the case of `Cc1cc(Cc2cc(C(F)(F)F)cc(C(F)(F)F)c2)ccc1NC(=O)c1cccc(Cl)c1C(=O)NC(C)CS(C)=O` (configuration not stated), the melting point is reported as 162 to 165 °C. In the case of `Oc1cccc(-n2nnnc2S)c1`, the melting point is reported as 176 to 178 °C. `Cn1cc(C(N)=O)c(=O)c2ccc(C(F)(F)F)cc21` gave a melting point of 288 to 292 °C. `COc1ccc(CC#N)cc1OC1CCCC1` gave a melting point of 32 to 34 °C. `CCCc1c(OCCCSc2ccc(CC(=O)OC)c(Cl)c2Cl)ccc(C(C)=O)c1O` gave a melting point of 82 to 85 °C. For `CCCc1c(OCCOCCOCCOc2ccc3ccc(OCC(=O)O)cc3c2C(C)=O)ccc(C(C)=O)c1O`, the melting point was 110 to 111 °C. `c1ccc(CCOCCOc2ccc(OCc3ccccc3)cc2)cc1` gave a melting point of 46 to 49 °C. In the case of `COC(=O)/C=C/c1c(-c2ccc(F)cc2)cccc1C(C)C`, the melting point is reported as 87 to 89 °C. For `COc1ccc2nc(COc3ccc(CC(C(N)=O)S(C)(=O)=O)cc3)n(C)c2c1` (configuration not stated), the melting point was 233 to 236 °C. Work on `CCOC(=O)c1cccc(-c2ccc(C#N)cc2)c1` yielded a melting point of 91.5 to 92 °C. For `COC1C(OC(=O)N2CCOCC2)CCC2(CO2)C1C1(C)OC1CCC(C)C` (configuration not stated), the melting point was 64 to 65 °C. Work on `CCCCNC(=O)N(C(=O)NCCCC)c1c(OC(=O)N(CC)CC)nc(C)c2cc(OC)c(OC)cc12` yielded a melting point of 138 to 140 °C. Work on `CC(C)CCN1C(=O)C(NC(=O)Oc2ccccc2)C(=O)N(c2ccccc2F)c2ccccc21` (configuration not stated) yielded a melting point of 226 to 227 °C. In the case of `OCC1OC(OCc2ccccc2)C(OCc2ccccc2)C1O` (configuration not stated), the melting point is reported as 73 to 74 °C. In the case of `CN(C(=O)CBr)c1ccc(OCC(=O)N[C@@H](CC(N)=O)C(=O)N[C@@H](Cc2ccccc2)[C@H](O)C(=O)N2CCC[C@H]2C(=O)NC(C)(C)C)cc1`, the melting point is reported as 116 to 122 °C. In the case of `CCCCCCCCCCCCOC(=O)c1cc([N+](=O)[O-])c(C(=O)O)cc1C(=O)O`, the melting point is reported as 148 °C. For `COC(=O)c1ccccc1OCC(O)CNC(C)C` (configuration not stated), the melting point was 78 to 79 °C. In the case of `COC(=O)c1cc2cc(Cl)c(Cl)cc2nc1Cl`, the melting point is reported as 178 to 180 °C. `NS(=O)(=O)c1ccc(NC(=O)CCl)cc1C(F)(F)F` gave a melting point of 185 to 190 °C. Work on `O=C1c2cc(CCCCOC(=O)C(F)(F)F)ccc2OCc2ccsc21` yielded a melting point of 65.5 to 67 °C. `COc1ccc(-c2nc(CNC(=O)NC(C)C)sc2-c2ccc(OC)cc2)cc1` gave a melting point of 146 to 149 °C. Work on `COc1ccc(NC(=O)c2ccc(F)c(F)c2)cc1NS(=O)(=O)CCl` yielded a melting point of 191 to 193 °C. Work on `COC(=O)c1ccc(C(=O)c2c(C)c(OCc3cccc(OC)c3)c3ccccn23)cc1` yielded a melting point of 106 °C. With `Cc1nc(C(=O)NCCO[N+](=O)[O-])co1` the melting point was 106 to 108 °C. Molecule `CCCCCCCCCCNC(=O)C1CSC(c2cccnc2)N1` (configuration not stated) has a melting point of 88 °C. `CCOC(=O)C=Cc1ccc(CCNS(=O)(=O)c2ccc(Cl)cc2)cc1` gave a melting point of 97 to 98 °C. `CCCC[C@H](NC(=O)CC[C@H](C)CNC(=O)COc1ccccc1)C(=O)CS(=O)Cc1ccco1` (some centres not stated) gave a melting point of 96 to 99 °C. Work on `CC1(C)C(C(=O)OCC(Cl)(Cl)Cl)N2C(=O)C(NC(=O)Cc3ccccc3)C2S1=O` (configuration not stated) yielded a melting point of 166 to 168 °C. Work on `Nc1ncnc2c1c(-c1ccc3cn[nH]c3c1)nn2Cc1oc2ccccc2c(=O)c1-c1ccccc1` yielded a melting point of 140 to 143 °C. `c1ccc2c(c1)sc1nncn12` gave a melting point of 175 to 176 °C. `Cn1cccc1C(=O)NCCO` gave a melting point of 78.1 °C. With `O=C(Cl)c1cc(Oc2ccc(C(F)(F)F)cc2Cl)ccc1[N+](=O)[O-]` the melting point was 118 to 120 °C. Molecule `COP(C)(=O)C(O)[C@H](CC1CCCCC1)NC(=O)[C@H](CC(C)C)NC(=O)CCc1ccccc1` (some centres not stated) has a melting point of 165 to 170 °C. Work on `CCCCCOC(=O)C(N)C=CCP(=O)(O)O` (configuration not stated) yielded a melting point of 160 to 161 °C. `COc1ccc2c(c1)Sc1ccc(SC)cc1C(Cl)C2` (configuration not stated) gave a melting point of 120 to 123 °C. `Nc1c(-c2ccc(NS(=O)(=O)c3ccccc3Cl)cc2F)cnc2c(CO)cnn12` showed a melting point of 204 to 208 °C. With `COC(=O)c1ccc(C(O)c2cnn3c(N(C)c4ccccc4)ncnc23)cc1` (configuration not stated) the melting point was 68 °C. For `COc1ccc(C(=O)Nc2ccccc2)cc1NS(=O)(=O)c1ccc2ccccc2c1`, the melting point was 223 to 225 °C. With `c1cc2cc(-c3cnc(O[C@H]4CCN5CCC[C@@H]4C5)nc3)ccc2[nH]1` the melting point was 195 to 199 °C. Molecule `CC(C)(C)OC(=O)N1CC[C@H](c2ccc3c(c2)OCO3)[C@@H](OCc2ccc3ccccc3c2)C1` (racemic) has a melting point of 128 to 129 °C. `COC(=O)N(c1ccccn1)C(C(=O)NC(Cc1ccccc1)C(O)CN1C2CCC(C2)N1C(=O)OC(C)(C)C)C(C)C` (mixture of isomers) showed a melting point of 73 to 77 °C. In the case of `CC(=O)C1=C(O)C(=C(C)Nc2ccc(F)cc2)C(=O)OC1=O`, the melting point is reported as 199 to 201 °C. In the case of `Cc1ccc(S(=O)(=O)OCC2COc3ccc(N)c(N)c3O2)cc1` (configuration not stated), the melting point is reported as 178 to 180 °C. For `N#Cc1ccc2[nH]cc(CCNCC(F)(F)F)c2c1`, the melting point was 102 °C. Molecule `COCC(=O)c1c[nH]c2ncc(-c3cc(OC)c(OC)c(OC)c3)nc12` has a melting point of 229 to 230 °C. For `O=C(CN1CN(OC(F)(F)F)C=N1)c1ccccc1`, the melting point was 98 to 101 °C. With `CCc1n[nH]c(CC)c1CCCCCCOc1ccc(Cl)cc1` the melting point was 130 to 132 °C. `CCCCCCCC(=O)N(C)Cc1cc(-c2ccc(C=C3SC(=O)NC3=O)cc2)ccc1OCc1ccccc1` gave a melting point of 158 °C. `CC(C)(C)OC(=O)NC(CC(O)CNC(Cc1ccccc1)C(O)CNC(=O)OCc1ccccc1)c1ccccc1` (configuration not stated) showed a melting point of 120 to 121 °C. In the case of `COC(=O)Nc1nc(OC)cc(OC)n1`, the melting point is reported as 81 to 83 °C. In the case of `CCN(CC1(C(F)(F)F)c2cc(Cl)ccc2Nc2ncccc21)C(C)C` (configuration not stated), the melting point is reported as 140 to 141 °C. For `O=C(Nc1cc(Cl)c(O)c(Cl)c1)c1ccc(O)cc1O`, the melting point was 235 to 237 °C. Work on `CC(C)(C)C(O)(Cc1ccccc1)C(Cn1ccnc1)Oc1ccc(Cl)cc1` (configuration not stated) yielded a melting point of 179 to 181 °C. Work on `CCC(=NOc1ccc(Cl)cc1)c1cc(Cl)ccc1NS(=O)(=O)C(F)(F)F` yielded a melting point of 87 to 88 °C.
